{
  "source": "patent US11311522B1",
  "about": "(Cavion, Inc., priority 2018, dated 2022)",
  "test": "PN003: safety and tolerability",
  "type": "in vivo",
  "settings": "for At least 1 adverse event / Disorientation / Dry mouth / Gastrointestinal Disorders / Hallucinations visual / Headache / Insomnia / Nausea / Nervous System Disorders / Psychiatric Disorders / Somnolence / Vivid dreams: Study PN003/Part I and Part II",
  "from_the_text": "Additional adverse events, including mood swings, feeling frightened, laughing intermittently, difficulty moving hands, feeling weak, enhanced taste, loss of fine sensation in fingertips, some loss of sensation at skin level (all over body), and out of body feeling, were reported as the day progressed. All adverse events were mild or moderate in severity. Most events began minutes to hours after dosing, and all had resolved by 3 days after dosing. The adverse events that the subject experienced were described as “mood swings” and led to discontinuation of dosing. […] In addition, they reported feeling angry towards another subject, feeling dizzy/drunk, intense daydreams, shaking/trembling, and sweating. All adverse events were mild in severity, and all were considered possibly related to the study drug. The last dose of CX-8998 was not administered. All adverse events resolved after discontinuation of the study drug. […] The subject experienced nervous system-related events of gradually increasing severity, including lightheadedness, euphoria, tiredness, headache, hard to follow thoughts, vulnerable thoughts and emotions, feeling flat, and weak in the muscles. All adverse events were mild or moderate in severity, and all were considered possibly related to the study drug. The last dose of CX-8998 was not administered. All adverse events resolved after discontinuation of the study drug. […] Oxygen saturation and serum glucose levels were within normal limits, but the subject's blood pressure was low at the time of the event (76/43 mmHg, with a pulse rate of 59 bpm). […] The event was judged by the investigator as moderate in severity and as probably related to the study drug. The subject was discontinued from the study because of ongoing nausea and feelings of weakness and lethargy. […] The subject was not on telemetry at the time. The investigator considered the event to be a vasovagal reaction (moderate in severity) and assessed the event as unrelated to the study drug. The subject continued in the study and completed the planned 7 days of treatment. […] A washout period of at least 2 weeks separated the treatment periods. […] The PSG recordings were initiated at each subject's habitual bedtime and continued for 8 hours. In addition to PSG recordings, subjects were evaluated on the next day with subjective measures of sleep quality (Leeds Sleep Evaluation Questionnaire) and sleepiness (Karolinska Sleepiness Scale) and with cognitive and motor tasks to assess next-morning residual effects. An interim analysis of the primary endpoint (slow wave activity in the first one-third of sleep) was performed after 24 subjects had completed Part I of the study (Section 5.3.3.1.2). The study was adaptively designed to allow a re-estimation of the sample size after the interim analysis. Based on the results of the interim analysis, the study could be stopped if the efficacy criterion (increase in slow wave activity, p<0.05) or futility criterion (p>0.25) was achieved. If neither criterion was met, a re-estimation of the sample size was specified, with the ability to enroll up to 24 additional subjects. […] As in Part I of the study, PSG recordings were initiated at each subject's habitual bedtime and continued for 8 hours, and subjects were evaluated on the next day with subjective measures of sleep quality (Leeds Sleep Evaluation Questionnaire) and sleepiness (Karolinska Sleepiness Scale) and with cognitive and motor tasks to assess next-morning residual effects.\nAll reported adverse experiences were temporary and generally of mild intensity.\nThe visual disturbances tended to cease with eye opening and to recur with eye closure and were generally not disturbing to the subjects. […] No serious adverse events were reported, and none of the subjects discontinued treatment because of an adverse event. […] 5.3.3.1.3.2 Other Safety Assessments No clinically significant trends in safety laboratory parameters or vital signs were observed. […]",
  "key": {"[1]": {"settings": "single dose 4 mg, N = 12 exposures"}, "[2]": {"settings": "single dose 8 mg, N = 9 exposures"}, "[3]": {"settings": "single dose 12 mg, N = 54 exposures"}},
  "data": [
    {"smiles": "CC(C)c1ccc(CC(=O)N[C@H](C)c2ccc(OCC(F)(F)F)cn2)cc1", "note": "[CX-8998]", "values": [
      {"measurement": "Exposures with increase from baseline of ≥30 and ≤60 msec in QTc", "setting": "8 mg", "value": 11.1, "unit": "%"},
      {"measurement": "Exposures with increase from baseline of ≥30 and ≤60 msec in QTc", "setting": "12 mg", "value": 5.6, "unit": "%"},
      {"measurement": "At least 1 adverse event", "setting": "Any Dose, N = 75 exposures", "value": "33 (44.0) n (%)"},
      {"measurement": "Disorientation", "setting": "Any Dose, N = 75 exposures", "value": "3 (4.0) n (%)"},
      {"measurement": "Dry mouth", "setting": "Any Dose, N = 75 exposures", "value": "2 (2.7) n (%)"},
      {"measurement": "Gastrointestinal Disorders", "setting": "Any Dose, N = 75 exposures", "value": "7 (9.3) n (%)"},
      {"measurement": "Hallucinations visual", "setting": "Any Dose, N = 75 exposures", "value": "4 (5.3) n (%)"},
      {"measurement": "Headache", "setting": "Any Dose, N = 75 exposures", "value": "9 (12.0) n (%)"},
      {"measurement": "Insomnia", "setting": "Any Dose, N = 75 exposures", "value": "3 (4.0) n (%)"},
      {"measurement": "Nausea", "setting": "Any Dose, N = 75 exposures", "value": "2 (2.7) n (%)"},
      {"measurement": "Nervous System Disorders", "setting": "Any Dose, N = 75 exposures", "value": "15 (20.0) n (%)"},
      {"measurement": "Psychiatric Disorders", "setting": "Any Dose, N = 75 exposures", "value": "17 (22.7) n (%)"},
      {"measurement": "Somnolence", "setting": "Any Dose, N = 75 exposures", "value": "6 (8.0) n (%)"},
      {"measurement": "Vivid dreams", "setting": "Any Dose, N = 75 exposures", "value": "4 (5.3) n (%)"},
      {"measurement": "At least 1 adverse event", "setting": "[1]", "value": "4 (33.3) n (%)"},
      {"measurement": "Disorientation", "setting": "[1]", "value": "0 n (%)"},
      {"measurement": "Dry mouth", "setting": "[1]", "value": "0 n (%)"},
      {"measurement": "Gastrointestinal Disorders", "setting": "[1]", "value": "1 (8.3) n (%)"},
      {"measurement": "Hallucinations visual", "setting": "[1]", "value": "2 (16.7) n (%)"},
      {"measurement": "Headache", "setting": "[1]", "value": "1 (8.3) n (%)"},
      {"measurement": "Insomnia", "setting": "[1]", "value": "1 (8.3) n (%)"},
      {"measurement": "Nausea", "setting": "[1]", "value": "1(8.3) n (%)"},
      {"measurement": "Nervous System Disorders", "setting": "[1]", "value": "2 (16.7) n (%)"},
      {"measurement": "Psychiatric Disorders", "setting": "[1]", "value": "3 (25.0) n (%)"},
      {"measurement": "Somnolence", "setting": "[1]", "value": "1 (8.3) n (%)"},
      {"measurement": "Vivid dreams", "setting": "[1]", "value": "0 n (%)"},
      {"measurement": "At least 1 adverse event", "setting": "[2]", "value": "2 (22.2) n (%)"},
      {"measurement": "Disorientation", "setting": "[2]", "value": "0 n (%)"},
      {"measurement": "Dry mouth", "setting": "[2]", "value": "0 n (%)"},
      {"measurement": "Gastrointestinal Disorders", "setting": "[2]", "value": "1 (11.1) n (%)"},
      {"measurement": "Hallucinations visual", "setting": "[2]", "value": "0 n (%)"},
      {"measurement": "Headache", "setting": "[2]", "value": "0 n (%)"},
      {"measurement": "Insomnia", "setting": "[2]", "value": "0 n (%)"},
      {"measurement": "Nausea", "setting": "[2]", "value": "0 n (%)"},
      {"measurement": "Nervous System Disorders", "setting": "[2]", "value": "1 (11.1) n (%)"},
      {"measurement": "Psychiatric Disorders", "setting": "[2]", "value": "0 n (%)"},
      {"measurement": "Somnolence", "setting": "[2]", "value": "1 (11.1) n (%)"},
      {"measurement": "Vivid dreams", "setting": "[2]", "value": "0 n (%)"},
      {"measurement": "At least 1 adverse event", "setting": "[3]", "value": "27 (50.0) n (%)"},
      {"measurement": "Disorientation", "setting": "[3]", "value": "3 (5.6) n (%)"},
      {"measurement": "Dry mouth", "setting": "[3]", "value": "2 (3.7) n (%)"},
      {"measurement": "Gastrointestinal Disorders", "setting": "[3]", "value": "5 (9.3) n (%)"},
      {"measurement": "Hallucinations visual", "setting": "[3]", "value": "2 (3.7) n (%)"},
      {"measurement": "Headache", "setting": "[3]", "value": "8 (14.8) n (%)"},
      {"measurement": "Insomnia", "setting": "[3]", "value": "2 (3.7) n (%)"},
      {"measurement": "Nausea", "setting": "[3]", "value": "1 (1.9) n (%)"},
      {"measurement": "Nervous System Disorders", "setting": "[3]", "value": "12 (22.2) n (%)"},
      {"measurement": "Psychiatric Disorders", "setting": "[3]", "value": "14 (25.9) n (%)"},
      {"measurement": "Somnolence", "setting": "[3]", "value": "4 (7.4) n (%)"},
      {"measurement": "Vivid dreams", "setting": "[3]", "value": "4 (7.4) n (%)"}
    ]}
  ]
}
